Measurements reported in PMC6199744, “Development of Chemical Proteomics for the Folateome and Analysis of the Kinetoplastid Folateome” (ACS Infectious Diseases, 2018).
Like-named read-outs stand apart in the source and are kept apart here.

Tests used:
Assay type in all cases: binding
[1] = biological target: T1, HeLa cell extract proteins (Homo sapiens, UniProt P49748)
T1 construct: endogenous in cells; host or cells: HeLa cell extract
T1 sequence (P49748 41-655): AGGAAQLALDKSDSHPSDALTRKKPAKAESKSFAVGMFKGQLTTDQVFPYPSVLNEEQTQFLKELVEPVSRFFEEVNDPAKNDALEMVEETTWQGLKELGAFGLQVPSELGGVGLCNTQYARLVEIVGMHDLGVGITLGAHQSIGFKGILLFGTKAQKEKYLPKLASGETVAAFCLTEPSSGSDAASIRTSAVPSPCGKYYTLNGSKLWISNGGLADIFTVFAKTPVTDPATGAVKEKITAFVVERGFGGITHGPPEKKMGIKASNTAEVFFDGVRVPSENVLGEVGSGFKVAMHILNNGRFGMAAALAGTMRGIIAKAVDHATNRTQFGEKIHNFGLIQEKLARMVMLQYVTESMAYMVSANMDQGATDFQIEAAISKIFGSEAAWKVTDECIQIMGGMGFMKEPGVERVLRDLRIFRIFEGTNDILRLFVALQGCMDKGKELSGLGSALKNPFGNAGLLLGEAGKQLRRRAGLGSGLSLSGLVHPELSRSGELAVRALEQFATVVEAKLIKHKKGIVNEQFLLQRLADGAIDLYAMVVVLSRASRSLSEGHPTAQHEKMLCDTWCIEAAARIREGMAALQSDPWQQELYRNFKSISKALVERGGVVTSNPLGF

[2] = biological target: T2, HeLa cell extract proteins (Homo sapiens, UniProt Q99873)
T2 construct: endogenous in cells; host or cells: HeLa cell extract
T2 sequence (Q99873 whole entry): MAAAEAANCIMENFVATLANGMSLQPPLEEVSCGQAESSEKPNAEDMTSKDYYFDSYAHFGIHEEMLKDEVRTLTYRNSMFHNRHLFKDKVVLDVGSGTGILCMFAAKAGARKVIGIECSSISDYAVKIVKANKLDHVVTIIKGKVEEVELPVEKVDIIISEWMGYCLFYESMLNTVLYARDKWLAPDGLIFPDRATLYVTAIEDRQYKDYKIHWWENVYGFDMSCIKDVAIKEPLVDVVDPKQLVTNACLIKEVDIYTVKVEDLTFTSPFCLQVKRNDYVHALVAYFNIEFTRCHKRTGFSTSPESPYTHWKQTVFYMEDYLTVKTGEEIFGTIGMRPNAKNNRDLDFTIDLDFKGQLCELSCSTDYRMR

[3] = biological target: T3, HeLa cell extract proteins (Homo sapiens, UniProt O75390)
T3 construct: endogenous in cells; host or cells: HeLa cell extract
T3 sequence (O75390 28-466): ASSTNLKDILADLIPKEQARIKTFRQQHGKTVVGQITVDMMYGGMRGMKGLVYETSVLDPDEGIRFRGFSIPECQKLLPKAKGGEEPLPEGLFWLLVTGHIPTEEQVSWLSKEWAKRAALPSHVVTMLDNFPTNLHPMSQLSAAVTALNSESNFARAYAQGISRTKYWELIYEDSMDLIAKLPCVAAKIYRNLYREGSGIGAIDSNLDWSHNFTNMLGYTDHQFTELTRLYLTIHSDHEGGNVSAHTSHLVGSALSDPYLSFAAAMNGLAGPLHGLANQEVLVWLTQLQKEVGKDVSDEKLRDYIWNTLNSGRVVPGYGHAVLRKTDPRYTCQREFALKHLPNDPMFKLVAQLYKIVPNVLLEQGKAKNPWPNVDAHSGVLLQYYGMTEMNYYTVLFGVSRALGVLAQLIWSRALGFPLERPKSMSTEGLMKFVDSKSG

[4] = biological target: T4, HeLa cell extract proteins (Homo sapiens, UniProt P28072)
T4 construct: endogenous in cells; host or cells: HeLa cell extract
T4 sequence (P28072 1-239): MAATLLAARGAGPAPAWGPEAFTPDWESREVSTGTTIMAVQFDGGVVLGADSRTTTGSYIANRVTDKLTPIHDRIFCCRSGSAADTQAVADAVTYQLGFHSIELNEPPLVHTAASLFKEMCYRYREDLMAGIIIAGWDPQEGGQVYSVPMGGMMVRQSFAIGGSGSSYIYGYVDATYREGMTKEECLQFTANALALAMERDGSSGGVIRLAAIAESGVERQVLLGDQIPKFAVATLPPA

[5] = biological target: T5, HeLa cell extract proteins (Homo sapiens, UniProt P17987)
T5 construct: endogenous in cells; host or cells: HeLa cell extract
T5 sequence (P17987 whole entry): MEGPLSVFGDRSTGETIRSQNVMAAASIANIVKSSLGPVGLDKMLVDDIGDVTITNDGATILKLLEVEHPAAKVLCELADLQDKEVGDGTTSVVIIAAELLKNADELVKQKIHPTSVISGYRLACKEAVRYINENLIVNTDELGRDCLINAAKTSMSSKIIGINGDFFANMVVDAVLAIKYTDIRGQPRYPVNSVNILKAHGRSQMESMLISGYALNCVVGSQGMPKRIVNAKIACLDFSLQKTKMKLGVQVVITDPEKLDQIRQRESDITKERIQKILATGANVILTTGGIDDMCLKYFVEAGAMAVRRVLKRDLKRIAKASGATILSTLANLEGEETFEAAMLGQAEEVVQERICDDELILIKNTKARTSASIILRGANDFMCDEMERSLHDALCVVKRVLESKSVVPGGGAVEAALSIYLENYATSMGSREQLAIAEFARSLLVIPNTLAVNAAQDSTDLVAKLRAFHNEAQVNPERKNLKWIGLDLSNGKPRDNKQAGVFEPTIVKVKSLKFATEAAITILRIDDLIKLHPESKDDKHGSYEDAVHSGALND

[6] = biological target: T6, HeLa cell extract proteins (Homo sapiens, UniProt Q01650)
T6 construct: endogenous in cells; host or cells: HeLa cell extract
T6 sequence (Q01650 whole entry): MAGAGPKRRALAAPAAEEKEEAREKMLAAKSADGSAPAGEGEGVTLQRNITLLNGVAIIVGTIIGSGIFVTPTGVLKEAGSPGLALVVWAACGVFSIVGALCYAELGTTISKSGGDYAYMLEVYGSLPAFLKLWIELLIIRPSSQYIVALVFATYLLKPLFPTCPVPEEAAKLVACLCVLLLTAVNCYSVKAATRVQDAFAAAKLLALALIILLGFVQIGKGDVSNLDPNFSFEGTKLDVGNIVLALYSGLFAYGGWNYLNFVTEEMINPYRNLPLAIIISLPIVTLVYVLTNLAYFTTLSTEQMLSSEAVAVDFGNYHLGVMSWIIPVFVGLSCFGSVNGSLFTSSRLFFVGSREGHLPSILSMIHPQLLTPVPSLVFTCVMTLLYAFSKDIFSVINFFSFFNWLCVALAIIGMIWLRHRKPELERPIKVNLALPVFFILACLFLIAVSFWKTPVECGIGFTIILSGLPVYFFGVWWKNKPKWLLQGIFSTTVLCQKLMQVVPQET

[7] = biological target: T7, HeLa cell extract proteins (Homo sapiens, UniProt P62826)
T7 construct: endogenous in cells; host or cells: HeLa cell extract

[8] = biological target: T8, HeLa cell extract proteins (Homo sapiens, UniProt P07339)
T8 construct: endogenous in cells; host or cells: HeLa cell extract
T8 sequence (P07339 65-412): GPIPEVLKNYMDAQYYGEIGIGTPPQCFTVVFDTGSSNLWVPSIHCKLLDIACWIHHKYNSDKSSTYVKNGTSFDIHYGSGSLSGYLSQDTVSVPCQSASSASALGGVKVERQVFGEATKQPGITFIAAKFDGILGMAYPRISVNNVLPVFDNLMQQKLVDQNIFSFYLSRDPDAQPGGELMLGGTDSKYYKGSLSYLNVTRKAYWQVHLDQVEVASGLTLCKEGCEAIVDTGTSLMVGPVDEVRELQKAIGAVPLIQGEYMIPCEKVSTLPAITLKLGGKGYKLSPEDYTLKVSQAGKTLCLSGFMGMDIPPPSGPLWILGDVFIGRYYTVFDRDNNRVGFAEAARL

[9] = biological target: T9, HeLa cell extract proteins (Homo sapiens, UniProt Q93100)
T9 construct: endogenous in cells; host or cells: HeLa cell extract
T9 sequence (Q93100 1-1093): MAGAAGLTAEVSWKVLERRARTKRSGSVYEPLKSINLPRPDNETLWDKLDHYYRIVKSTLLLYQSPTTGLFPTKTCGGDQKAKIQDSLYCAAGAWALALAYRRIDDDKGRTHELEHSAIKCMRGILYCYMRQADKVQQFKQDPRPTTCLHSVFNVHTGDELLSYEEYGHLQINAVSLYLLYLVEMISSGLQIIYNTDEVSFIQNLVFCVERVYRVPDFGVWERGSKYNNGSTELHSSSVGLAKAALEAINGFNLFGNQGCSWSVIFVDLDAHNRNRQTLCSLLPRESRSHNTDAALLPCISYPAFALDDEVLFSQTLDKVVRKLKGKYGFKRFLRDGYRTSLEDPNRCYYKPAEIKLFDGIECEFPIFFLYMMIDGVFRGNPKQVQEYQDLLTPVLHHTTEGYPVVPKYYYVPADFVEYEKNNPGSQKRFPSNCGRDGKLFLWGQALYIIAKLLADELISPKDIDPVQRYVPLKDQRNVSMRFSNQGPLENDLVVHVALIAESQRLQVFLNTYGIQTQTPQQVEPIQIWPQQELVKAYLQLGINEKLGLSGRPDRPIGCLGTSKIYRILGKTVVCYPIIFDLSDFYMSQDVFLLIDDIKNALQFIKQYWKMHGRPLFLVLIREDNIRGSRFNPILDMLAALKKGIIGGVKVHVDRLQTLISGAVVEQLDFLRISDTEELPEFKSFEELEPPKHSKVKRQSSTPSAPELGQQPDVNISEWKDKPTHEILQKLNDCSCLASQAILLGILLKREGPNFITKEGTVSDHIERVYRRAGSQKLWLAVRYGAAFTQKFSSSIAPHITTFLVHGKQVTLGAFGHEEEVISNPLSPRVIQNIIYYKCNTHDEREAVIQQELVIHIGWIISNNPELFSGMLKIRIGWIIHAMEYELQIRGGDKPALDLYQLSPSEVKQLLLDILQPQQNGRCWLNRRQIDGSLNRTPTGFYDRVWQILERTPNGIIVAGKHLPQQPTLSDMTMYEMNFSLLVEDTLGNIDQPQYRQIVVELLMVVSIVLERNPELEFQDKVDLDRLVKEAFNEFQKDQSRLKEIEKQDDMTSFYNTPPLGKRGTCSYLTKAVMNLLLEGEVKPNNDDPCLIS

SMILES	fold changes relative to vehicle control ([1]; HeLa, protein ACADVL)	fold changes relative to vehicle control ([2]; HeLa, protein PRMT1)	fold changes relative to vehicle control ([3]; HeLa, captured protein CS)	fold changes relative to vehicle control ([4]; HeLa, protein PSMB6)	fold changes relative to vehicle control ([5]; HeLa, protein TCP1)	fold changes relative to vehicle control ([6]; HeLa, captured protein SLC7A5)	fold changes relative to vehicle control ([7]; HeLa, protein RAN)	fold changes relative to vehicle control ([8]; HeLa, captured protein CTSD)	fold changes relative to vehicle control ([9]; HeLa, protein PHKB)	fold changes relative to vehicle control ([1]; protein ACADVL, HeLa)	fold changes relative to vehicle control ([2]; protein PRMT1, HeLa)	fold changes relative to vehicle control ([3]; protein CS, HeLa)	fold changes relative to vehicle control ([4]; protein PSMB6, HeLa)	fold changes relative to vehicle control ([5]; protein TCP1, HeLa)	fold changes relative to vehicle control ([6]; HeLa, protein SLC7A5)	fold changes relative to vehicle control ([7]; protein RAN, HeLa)	fold changes relative to vehicle control ([8]; protein CTSD, HeLa)	fold changes relative to vehicle control ([9]; captured protein PHKB, HeLa)	further results
Nc1nc2c(c(=O)[nH]1)N(C=O)C(CNc1ccc(C(=O)N[C@@H](CCC(=O)O)C(=O)O)cc1)CN2 (stereo partly drawn) [LEU, leucovorin]	0.98	0.94	1.05	1.01	1.04	1.02	0.98	0.96	1										
Nc1nc2[nH]cc(CCc3ccc(C(=O)N[C@@H](CCC(=O)O)C(=O)O)cc3)c2c(=O)[nH]1 [PTX, pemetrexed]																			fold changes relative to vehicle control [1]: 1.03; fold changes relative to vehicle control [2]: 0.93; fold changes relative to vehicle control [3]: 1.2; fold changes relative to vehicle control [4]: 1.1; fold changes relative to vehicle control [5]: 1.08; fold changes relative to vehicle control [6]: 0.8; fold changes relative to vehicle control [7]: 1; fold changes relative to vehicle control [8]: 1; fold changes relative to vehicle control [9]: 1.02
CCCCCCOc1ccc(Cc2cnc(N)nc2N)cc1 [compound 1]										0.96	0.95	1.38	1.31	1.22	0.97	1.1	1.14	0.86	
CCCCCCOc1cccc(Cc2cnc(N)nc2N)c1 [compound 2]										1.29	1.24	1.99	1.36	1.65	1.01	1.8	1.26	1.09	
Nc1nc2cccc(-c3ccccc3)c2n1Cc1ccc(Cl)c(Cl)c1 [compound 3]										0.91	0.93	1.02	1.09	1.09	1.06	0.93	0.95	1.19	
NCCOCCOCC(=O)Nc1nc2ncc(CNc3ccc(C(=O)NC(CCC(=O)O)C(=O)O)cc3)nc2c(=O)[nH]1 (stereo not drawn) [compound 6]	1.22	0.95	1.32	1.29	1.32	0.76	1.11	1.12	1.04										
NCCCNc1ccc(C(=O)NC(CCC(=O)O)C(=O)O)cc1 (stereo not drawn) [compound 7]	0.97	0.91	1.3	1.02	1.07	0.97	0.95	0.96	1.08										
